Laboratory results as given in patent publication US12077531B2, “Imidazopyridinone compound” (KISSEI PHARMACEUTICAL CO., LTD., priority 2018, dated 2024).
Like-named read-outs stand apart in the source and are kept apart here.

Experiments:
[1] = system: TNBS induced colitis model rat; assay: Therapeutic effect in TNBS induced colitis model rat (intestinal permeability of FITC); type: in vivo; details: po, 72 h, 3 mg/kg orally once a day for 3 days, SD rats, mean, test compounds-free group 0, TNBS-untreated group 100, read-out: Inhibition (%): suppressive rate on the intestinal permeability
Experimental: Test Example 2 Therapeutic Effect in Colitis Model
(1) TNBS Induced Colitis Model Rat
SD rats: 8-weeks-old male SLC (Japan SLC) were used. Under pentobarbital anesthesia, 300 μL of TNBS (28 mg/mL) prepared by 50% ethanol was administered at a point 8 cm from anus in large intestine to cause inflammation. To the solvent-treated group was administrated 300 μL of 50% ethanol. Animals were fasted for 48 hours prior to administration of TNBS. Test compounds (3 mg/kg) prepared by 0.05% methylcellulose solution were orally administered once a day from next day, and it was administered for a total of 3 days. After administering for 3 days, 50 mg/kg FITC was orally administered at 4 hours after administration. Blood samples were collected from jugular vein under isoflurane anesthesia after 4 hours. The serum was centrifuged and fluorescence intensity was detected by PHERAstar FSX (BMG Labtech) to measure the concentration of FITC permeating into circulating blood through the mesentery. The suppressive rate on the intestinal permeability of test compounds was calculated based on the value of test compounds-free group as 0 and the value of TNBS-untreated group as 100.

[2] = Rat PK study: concentration of compounds in large intestine tissue and plasma; type: in vivo; details: male, SD, 3 mg/kg oral
Experimental: Test Example 3 Concentration of Compounds in Large Intestine Tissue
Test compounds (3 mg/kg/5 mL) prepared by 0.05% methylcellulose were orally administered to non-fasted rats (SD, 8-weeks-old, male, Japan SLC). Blood samples were collected from jugular vein at 0.25, 0.5, 1, 2, 4, 6 and 8 hours after the administration. Laparotomy was performed under isoflurane anesthesia and large intestine was isolated. Collected distal large intestine (about 5 cm) was cut open, and then the large intestine was washed with saline on a dish. After washing, the large intestine was minced by a small scissors. About 150 mg thereof was moved to tube. To the tube was added 100 μL of saline, the mixture was homogenized using shake master (1000 rpm×30 minutes). Samples were prepared by the addition with quadruple volume of saline as final volume. The concentrations of the test compound in large intestine tissue and plasma were measured through a quantitative analysis using liquid chromatography-mass spectrometry (LC/MS).

human PHD2184-418 = human PHD2184-418 (Homo sapiens (Human), UniProt Q9GZT9); assay: PHD2 inhibitory test (fluorescence polarization, binding between PHD2 and HIF-1α); details: human PHD2184-418, FITC-labeled HIF-1α556-574, 2 μM 2-oxoglutarate, 37° C. 60 minutes
Chain of human PHD2184-418 (Q9GZT9 184-418): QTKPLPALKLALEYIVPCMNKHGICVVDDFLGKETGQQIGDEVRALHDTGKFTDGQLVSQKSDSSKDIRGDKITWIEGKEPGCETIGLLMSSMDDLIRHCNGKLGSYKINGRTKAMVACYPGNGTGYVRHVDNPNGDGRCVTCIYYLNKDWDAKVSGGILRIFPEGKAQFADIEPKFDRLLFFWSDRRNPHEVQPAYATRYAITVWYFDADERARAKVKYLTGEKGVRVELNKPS
Summary of the method: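 N-His-tagged human PHD2 (residues 184–418, E. coli-expressed) was preincubated with compound, then FITC-Ahx-HIF-1α556-574 peptide was added in pH 7.4 HEPES buffer with 10 μM MnCl2 and 2 μM 2-oxoglutarate. After 60 min at 37 °C, fluorescence polarization (ex 470/em 530 nm) was read. Inhibition was calculated against compound-free wells.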

concentration at 8 h ([2]; large intestine tissue (distal large intestine), 8 hours, read-out: Colon: concentrations of the test compound in large intestine tissue after 8 hours): 99 ng/g
Kp at 8 h ([2]; large intestine tissue / plasma, 8 hours, read-out: C/P: ratio of the above Colon and Plasma): > 99
concentration at 8 h ([2]; plasma, 8 hours, read-out: Plasma: plasma test compound concentration after 8 hours): < 1 ng/mL
AUC ([2]; plasma, non-fasted, read-out: AUC: area under the plasma test compound concentration-time curve (converted)): 1.27 ng·h/mL
Cmax ([2]; plasma, non-fasted, read-out: Cmax: maximum plasma concentration of test compounds in the case of oral administration): 1 ng/mL
IC50 (human PHD2184-418): 0.15 µM
SMILES: Cn1c(C(=O)O)cnc1CN1CC[C@H](n2c(=O)n(-c3ccc(-c4ccc(C(=O)O)cc4)c(O)c3)c3cccnc32)C1 [Example 84, (S)-2-((3-(1-(4′-Carboxy-2-hydroxy-[1,1′-biphenyl]-4-yl)-2-oxo-1,2-dihydro-3H-imidazo[4,5-b]pyridin-3-yl)pyrrolidin-1-yl)methyl)-1-methyl-1H-imidazole-5-carboxylic acid]
inhibition in vivo at 3 mg/kg [1]: 117%
